Data from patent US4822791A, “Pharmaceutical compositions of-2,2-1,1-[bis-2,2'-(3,1-benzoxazin-4-one)9 ethylenes” (priority 1984, dated 1989).
Where “and” joins values, the source holds several entries; their conditions need not be identical. Identical values can stand only once. Like-named read-outs stand apart in the source and are kept apart here.

Assays:
[1] = tested on: passive cutaneous anaphylaxis (PCA); experiment: Anti-passive cutaneous anaphylaxis activity (PCA) in rats (Test Example 9); type: in vivo; conditions: Rattus norvegicus, po, 50 mg/kg, 10 animals
How it was run: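 Antiserum came from Wistar rats sensitized with ovalbumin (aluminium hydroxide plus B. pertussis adjuvant) and bled at day 14. It was diluted 12- and 24-fold and injected into the dorsal skin of naive rats 48 h before challenge.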

[2] = tested on: mast cell in abdominal cavity; experiment: Inhibition of histamine release from mast cell in abdominal cavity in rat (Test Example 6); type: cell-based
Description: Examination was made on the activity of inhibition of histamine release from mast cell by antigen-antibody reaction.
Swine ascaris extract solution was dinitrophenylated according to Aisen's method, dialysed, and lyophilized. The product was administered as antigen together with Bordetella Pertussis vaccine subcutaneously into the foot pad of rat. Eight days later, blood was taken to obtain antiserum. The PCA titer for this antiserum in rat was 32 to 64.
Heparin-containing PBS was injected intraperitoneally to rat which was sacrificed by exsanguination, after which the abdomen was well massaged to collect the injected PBS, which was purified by washing several times by centrifugation. The number of the mast cells contained in the solution was determined and adjusted to the designed concentration. As to method of sensitizing the cell, the above cell suspension (6 ml, 2×10^6 cells/ml) was treated with anti-DNP-Ascaris rat serum (PCA titer 32) (6 ml) and the mixture was incubated in the presence of hepain at 37° C. for 2 hours.
To the sensitized mast cell suspension the solution of the drug to be tested was added, and the mixture was preliminarily incubated at 37° C. for 12 minutes. After addition of the solution of antigen DNP-Ascaris (final concentration, 20 microgramms/ml), the mixture was further incubated for 20 minutes. After completion of the reaction, the solution was centrifuged (500 G, 10 min.) under a low temperature to obtain a supernatant solution. Histamine contained in the supernatant solution was subjected to fluorometry by crthophthalaldehyde method.

[3] = tested on: passive systemic anaphylaxis (PSA); experiment: Preventive activity against passive systemic anaphylaxis (PSA) in guinea pig; type: in vivo, Hartley strain female guinea pig
Description: Effect of the compound on prevention of death by passive systemic anaphylaxis was examined in guinea pig.
Normal Hartley strain female guinea pig (body weight, 240-260 g) was sensitized by intravenous administraticn of anti-ovalbumin rabbit serum. It was perorally administered with the compound 11 in the amount of 200 mg/kg. One hour later, it was intravenously administered with 2% physiological saline solution of antigen ovalbumin at the rate of 0.05 ml. Thereafter, the state was observed, and the time (seconds) until death was measured.

[4] = tested on: passive cutaneous anaphylaxis (PCA); experiment: Anti-passive cutaneous anaphylaxis (PCA) activity in rats (Test Example 2); type: in vivo, Wistar strain rats; conditions: Rattus norvegicus, N 10; for inhibition in vivo at 10 mg/kg: 10 mg/kg PO; for inhibition in vivo at 50 mg/kg: 50 mg/kg PO; for inhibition in vivo at 100 mg/kg: 100 mg/kg PO
How it was run: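 Antiserum from Wistar rats sensitized with ovalbumin (alum plus B. pertussis adjuvant) was diluted 16- or 32-fold and injected into dorsal skin of naive rats, which were held 48 h. Compound was given orally 1 h before i.v. ovalbumin plus Evans blue.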

[5] = biological target: T1, hyaluronidase (Bos taurus, UniProt Q2YDK3); experiment: Anti-hyaluronidase activity (modified Morgan-Elson method); type: biochemical; conditions: hyaluronidase 340NF unit/ml; activating agent Compound 48/80 or CaCl2; read-out: IC50
T1 sequence (Q2YDK3 36-553): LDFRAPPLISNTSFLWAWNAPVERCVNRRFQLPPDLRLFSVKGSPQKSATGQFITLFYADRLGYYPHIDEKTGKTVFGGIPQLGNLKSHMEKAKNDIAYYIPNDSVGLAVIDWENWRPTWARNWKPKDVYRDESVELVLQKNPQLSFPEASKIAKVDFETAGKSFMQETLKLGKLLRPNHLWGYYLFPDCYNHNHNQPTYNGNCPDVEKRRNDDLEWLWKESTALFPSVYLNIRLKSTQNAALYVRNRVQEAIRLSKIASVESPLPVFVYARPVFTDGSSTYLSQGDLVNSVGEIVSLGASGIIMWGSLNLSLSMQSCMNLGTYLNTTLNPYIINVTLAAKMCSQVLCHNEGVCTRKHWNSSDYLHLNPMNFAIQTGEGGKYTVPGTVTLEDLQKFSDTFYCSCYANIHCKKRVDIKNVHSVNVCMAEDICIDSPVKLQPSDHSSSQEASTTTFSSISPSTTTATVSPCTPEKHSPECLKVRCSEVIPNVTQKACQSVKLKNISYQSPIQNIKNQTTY

[6] = tested on: SRS-A; experiment: Anti-SRS-A activity, contraction of guinea pig ileum by crude SRS-A solution; set-up: key to Anti-SRS-A activity (rate of inhibition against the contraction amount): % inhibition of SRS-A-induced ileum contraction
Description: A piece of lungs of guinea pig sensitized with ovalbumin was incubated with antigen ovalbumin at 37° C. for 20 minutes to obtain a supernatant solution, which was used as a crude SRS-A solution.
A piece of ileum of normal guinea pig was suspended in Magnus tube filled with Tyrode's solution and incubated with the solution of drug to be examined for a certain duration, and the contraction of the piece of ileum induced by adding the above crude SRS-A solution was determined on the basis of the contraction rate attributed to hystamine dihydrochloride 10^-6 M. The rate of inhibition against the contraction amount was taken as anti-SRS-A activity.

[7] = tested on: anaphylaxis reaction to inhalated antigen; experiment: Antigen inhalation test on passive sensitized guinea pig (experimental asthma model); type: in vivo; conditions: 200 mg/kg po
Description: The test compound and Tranilast were respectively suspended at the time of use in 5% gum arabic solution containing 0.1% Tween 80 at the rate of 40 mg/ml, and were perorally administered at the rate of 0.5 ml per 100 g body weight of the animal.
DSCG was dissolved at the time of use in physiological saline solultion for injection at the rate of 5.0 mg/ml, and was intravenously injected at the rate of 0.1 ml per 100 g body weight of the animal.
Anti-ovalbumin rabbit serum diluted with physiological saline solution for injection so as tc contain anti-ovalbumin rabbit antibody at the rate of 0.187 mg N/ml was intravenously administered to guinea pig at the rate of 0.1 ml per 100 g of body weight and it was passively sensitized.
Twenty-four hours later, the suspension of the compound prepared in (1) above was perorally or intravenously administered to the animal. The animal was put in the inhalation chamber one hour after the administration in case of the peroral administration and five minutes after the administration in case of the intravenous administration, and 2% physiological saline solution of antigen ovalbumin was inhaled by spraying. Over 10 minutes' period from the time immediately after the forced inhalation, the time until its fall attributed to anaphylaxis reaction was recorded, and the numbers of alive and dead animals after lapse of 10 minutes were also counted.

[8] = Acute toxicity LD50 in mice (Test Example 8); conditions: mouse, in vivo, one week, Probit method
Description: ddy-Strain mice (male) and Wistar strain rats were used to obtain LD50 values.
According to the ordinary procedure, suspension or solution of test sample was administered to the animals. From the number of the died animals until one week after the administration, LD50 values were obtained by Probit method.

[9] = read-out: Average Inhibition Rate (%) Antiserum Dilution: × 16
[10] = read-out: Average Inhibition Rate (%) Antiserum Dilution: × 32

`O=C(Nc1ccccc1C(=O)O)C(=Cc1ccccc1)C(=O)Nc1ccccc1C(=O)O` [Compound 11, 2,2'-[(1,3-dioxo-2-phenylmethylene-1,3-propanediyl)diimino]bisbenzoic acid] gave an inhibition in vivo at 50 mg/kg ([1]; read-out: Inhibition, Anti-serum Dilution: × 12) of 20.8%, an inhibition in vivo at 50 mg/kg ([1]; read-out: Inhibition, Anti-serum Dilution: × 24) of 23% and an activity at 1000 µM ([2]; Rattus norvegicus, Mast cell, 20 min, 10^-3 M, DNP-Ascaris 20 microgramms/ml, read-out: Amount of histamine released from peritoneal mast cell (Control = 100)) of 13%. For the same molecule, the activity at 100 µM ([2]; Rattus norvegicus, Mast cell, 20 min, 10^-4 M, DNP-Ascaris 20 microgramms/ml, read-out: Amount of histamine released from peritoneal mast cell (Control = 100)) was 59%, the activity at 10 µM ([2]; Rattus norvegicus, Mast cell, 20 min, 10^-5 M, DNP-Ascaris 20 microgramms/ml, read-out: Amount of histamine released from peritoneal mast cell (Control = 100)) was 51% and the activity at 1 µM ([2]; Rattus norvegicus, Mast cell, 20 min, 10^-6 M, DNP-Ascaris 20 microgramms/ml, read-out: Amount of histamine released from peritoneal mast cell (Control = 100)) was 55%. For the same molecule, the “inhibition of release of histamine from the mast cell (in words)” value ([2]; even at the low concentration of 10^-6 M) was “inhibiting release of histamine”, the average living time ([3]; 200 mg/kg perorally, control group 294.9 seconds) was 441.7 s and the “Extended rate (%)” value ([3]; 200 mg/kg po) was 49.8%. For the same molecule, the “anti-PSA activity (in words)” value ([3]; 200 mg/kg po) was “statistically significant anti-PSA activity”, the “Ave. time to death Mean ± S.E.” value ([3]; 200 mg/kg po, N 10) was 441.70 ± 21.5 s and the “Required time (sec.) to death, single animals” value ([3]; 200 mg/kg po, N 10) was 431 s and 548 s and 488 s and 475 s and 367 s and 492 s and 485 s and 352 s and 348 s. It also gave an inhibition in vivo at 10 mg/kg [4, 9] of 23.2%, an inhibition in vivo at 10 mg/kg [4, 10] of 33.1% and an inhibition in vivo at 50 mg/kg [4, 9] of 41.4%. For the same molecule, the inhibition in vivo at 50 mg/kg [4, 10] was 39.1%, the inhibition in vivo at 100 mg/kg [4, 9] was 52.9% and the inhibition in vivo at 100 mg/kg [4, 10] was 53.5%. The IC50 [5] was 22 µM, the “Anti-SRS-A activity (rate of inhibition against the contraction amount)” value ([6]; 10^-3 M) was 31.8 and the “Anti-SRS-A activity (rate of inhibition against the contraction amount)” value ([6]; 10^-4 M) was 0. The “Anti-SRS-A activity (rate of inhibition against the contraction amount)” value ([6]; 10^-5 M) was 0, the “Anti-SRS-A activity (rate of inhibition against the contraction amount)” value ([6]; 10^-6 M) was 0 and the “anti-SRS-A activity (in words)” value ([6]; compound 11 at a concentration of 10^-3 M) was “moderate anti-SRS-A activity”. The “Extended rate (%)” value [7] was 43.5%, the “preventive effect on anaphylaxis reaction (in words)” value [7] was “strong preventive effect” and the “Average time for falling Mean ± S.E.” value ([7]; N 5) was 223.0 ± 15.7 s. The “Required time (sec.) for falling and Number of death (#), single animals” value ([7]; N 5, observed 10 minutes, # shows death) was 194 s and 227 s and 248 s and > 600 s, the LD50 at 168 h ([8]; iv, read-out: LD50 value (mg/kg body weight) Mouse i.v.) was 344 mg/kg and the LD50 at 168 h ([8]; po, read-out: LD50 value (mg/kg body weight) Mouse p.o.) was over 10000 mg/kg.
